As usually defined, the inhibition is the relative decrease from the control value, in per cent. As usually defined, the IC50 is the concentration that gives 50% inhibition.

Here are results for 18 molecules from patent publication US5300639A, “Thiazolo [5,4-b]azepine compounds” (Takeda Chemical Industries, Ltd., priority 1992, dated 1994).

For one experiment, the target named is T1, 5-lipoxygenase (Rattus norvegicus, UniProt P12527).
T1 construct: endogenous in cells; host or cells: RBL-1 (rat basophilic leukemia cells)
T1 sequence (P12527 1-673): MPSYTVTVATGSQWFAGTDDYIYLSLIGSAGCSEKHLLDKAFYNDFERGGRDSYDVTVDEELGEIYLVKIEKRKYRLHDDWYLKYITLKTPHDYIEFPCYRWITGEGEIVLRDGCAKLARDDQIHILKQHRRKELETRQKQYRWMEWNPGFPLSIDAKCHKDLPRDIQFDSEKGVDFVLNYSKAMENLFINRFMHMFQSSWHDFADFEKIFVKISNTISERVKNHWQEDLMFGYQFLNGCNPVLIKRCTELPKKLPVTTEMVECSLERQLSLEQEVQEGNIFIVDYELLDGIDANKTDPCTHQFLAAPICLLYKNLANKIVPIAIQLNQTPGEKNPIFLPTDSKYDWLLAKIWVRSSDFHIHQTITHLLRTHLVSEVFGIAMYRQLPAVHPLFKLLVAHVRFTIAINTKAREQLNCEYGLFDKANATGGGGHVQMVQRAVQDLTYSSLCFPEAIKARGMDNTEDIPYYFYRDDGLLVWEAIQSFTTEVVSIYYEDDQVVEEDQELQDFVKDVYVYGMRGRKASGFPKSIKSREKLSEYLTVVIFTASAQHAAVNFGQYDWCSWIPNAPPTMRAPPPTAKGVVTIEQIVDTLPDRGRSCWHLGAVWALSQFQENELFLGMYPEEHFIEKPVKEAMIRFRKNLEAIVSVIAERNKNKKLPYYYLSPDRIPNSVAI
The experiment can be described thus: Inhibitory action on 5-lipoxygenase (5-HETE formation in RBL-1 cells). In kind it is cell-based. The settings on record: read-out: Inhibition rate (%) of 5-HETE formation; for inhibition at 1 µM: 10^-6 M; for inhibition at 0.1 µM: 10^-7 M; for inhibition at 0.01 µM: 10^-8 M. The protocol: RBL-1 cells (rat basophilic leukemia cells) of 10^7 were suspended in 0.9 ml of MCM (mast cell medium). […] The mixture was incubated at 37° C. for 5 minutes. Then, 0.1 ml of MCM containing 50 μg of arachidonic acid and 10 μg of calcium ionophore A-23187 was added and further the mixture was incubated at 37° C. for 15 minutes. After the reaction, 1 ml of ethanol was added, well shaken and subjected to high performance liquid chromatography to determine 5-HETE. The absorption at 240 nm due to 5-HETE was measured by an ultraviolet abosorption monitor. The inhibition rate of 5-HETE formation is represented by (1-b/a)×100, wherein a is the peak height or area in the absence of the compound (I) and b is that in the presence of the compound (I).

The test system of experiment [1] is Behavior change due to the spinal intrathecal injection of ferrous chloride in mice. The experiment in a line: Behavior change due to spinal intrathecal injection of ferrous chloride in mice. Format: in vivo, Slc:ICR mouse. Conditions: 100 mg/kg p.o., 30 min before i.t. ferrous chloride; for Average score, 100 mg/kg dose: scale 0 (normal) to 5 (death); for Inhibition rate (%): vs saline. The protocol:
In male Slc : ICR mouse of 5 weeks age 10 mice per group were used. […] The evaluation point of behavior change was scored according to the following criterion.
The inhibition rate was shown based on the evaluation point under the above criterion. The test compound was orally administered 30 minutes before the i.t. injection of ferrous chloride.

Experiment [2] deals with formation of HHT (12-hydroxyheptadeca-5,8,10-trienoic acid) in rat's platelet. The experiment can be described thus: Inhibitory action for the formation of HHT in rat's platelet. Format: cell-based. Conditions: rat platelet rich plasma, read-out: Inhibition rate (%) of HHT formation; for inhibition at 100 µM: 10^-4 M; for inhibition at 10 µM: 10^-5 M; for inhibition at 1 µM: 10^-6 M. The protocol: Eight ml of blood was gathered from the abdominal aorta of a rat (JcI : Wistar, male, 12-15 weeks age) subjected to abdominal incision under anesthesia by the use of 3.2 % sodium citrate (1 volume of sodium citrate solution to 9 volume of whole blood). The blood was centrifuged at 800 rpm for 10 minutes at room temperature to gather PRP (platelet rich plasma), and the residual blood was further centrifuged at 3000 rpm for 10 minutes to gather PPP (platelet poor plasma). The platelet number in PRP was measured and the PRP was adjusted by diluting with PPP so that the concentration of platelet was one million/μl. To 0.25 ml of the PRP, 125 μg of arachidonic acid and the test compound (the final concentration of 100 μM, 10 μM, 1 μM and 0.1 μM) were added, and the mixture was incubated at 37° C. for 15 minutes. After the reaction, 1.1 ml of ethanol was added, well shaken and centrifuged at 2000 rpm for 10 minutes to separate the supernatant. To 1 ml of the supernatant 1 ml of water was added and subjected to high performance liquid chromatography to determine HHT. The absorption at 240 nm due to HHT was measured by an ultraviolet absorption monitor. […]

Experiment [3] has as its target T2, Leukotriene D4 (LTD4) receptor (Cavia porcellus, UniProt Q2NNR5).
T2 construct: guinea pigs' lung membrane fraction; from tissue; host or cells: guinea pig lung membrane fraction
T2 sequence (Q2NNR5 1-340): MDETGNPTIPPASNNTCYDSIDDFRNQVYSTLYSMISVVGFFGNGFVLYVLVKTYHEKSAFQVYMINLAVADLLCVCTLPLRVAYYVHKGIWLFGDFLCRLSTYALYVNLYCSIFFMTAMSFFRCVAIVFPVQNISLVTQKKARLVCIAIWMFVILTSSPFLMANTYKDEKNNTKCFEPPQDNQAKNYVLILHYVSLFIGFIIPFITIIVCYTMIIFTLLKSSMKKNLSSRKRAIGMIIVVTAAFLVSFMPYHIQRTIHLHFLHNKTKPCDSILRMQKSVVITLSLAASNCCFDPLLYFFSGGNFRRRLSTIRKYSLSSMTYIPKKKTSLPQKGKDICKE
The experiment in a line: Leukotriene D4 (LTD4) receptor antagonism ([3H]LTD4, guinea pigs' lung membrane fraction). In kind it is binding, guinea pig. Conditions: read-out: Inhibition rate (%) LTD4 receptor; for inhibition at 1 µM: 10^-6 M; for inhibition at 0.1 µM: 10^-7 M; for inhibition at 0.01 µM: 10^-8 M. How it is done: According to the method by S. S. Pong , and R. N. DeHaven (Proceedings of the National Academy of Sciences of the United States of America, 80, 7415-7419 (1983) , the leukotriene D4 (LTD4) receptor antagonism was measured by using [^3 H]LTD4 and guinea pigs' lung membrane fraction. The results are shown in Table 5.

Experiment [4] deals with lipoperoxide formation in rat's brain homogenate. The experiment can be described thus: Inhibitory action for lipoperoxide formation in rat's brain homogenate (thiobarbituric acid method). Format: biochemical. The settings on record: read-out: IC50 (M) × 10^-7. How it is done: According to the method by Suno et al. (Japan J. Pharmacol., 35, 196(1984) , the concentration of the compound necessary for 50% inhibition of lipoperoxide formation in rat's brain homogenate was determined by examining the lipoperoxide formation using the thiobarbituric acid method. The results obtained are shown in Table 3.

Counter-ions that a name gives are not always drawn.

For `COc1ccc(C=Cc2nc3c(s2)NCCCC3)cc1` [Example 2, 2-(4-Methoxystyryl)-5,6,7,8-tetrahydro-4H-thiazolo[5,4-b]azepine], on 5-lipoxygenase, the inhibition at 1 µM stood at 100%, the inhibition at 0.1 µM is 56% and the inhibition at 0.01 µM was determined as 14%. For the same molecule, in experiment [1], the “Average score, 100 mg/kg dose” value is 1.2 and the “Inhibition rate (%)” value is reported as 74.5%. For the same molecule, in experiment [2], the inhibition at 100 µM is 100%, the inhibition at 10 µM came to 58% and the inhibition at 1 µM was determined as 16%.

In the case of `C(=Cc1nc2c(s1)NCCCC2)c1ccccc1` [Example 3, 2-Styryl-5,6,7,8-tetrahydro-4H-thiazolo[5,4-b]azepine], in experiment [2], the inhibition at 100 µM worked out at 100%, the inhibition at 10 µM came to 83% and the inhibition at 1 µM was found to be 22%.

As to `COc1ccc(-c2nc3c(s2)NCCCC3)cc1` [Example 5, 2-(4-Methoxyphenyl)-5,6,7,8-tetrahydro-4H-thiazolo[5,4-b]azepine hydrochloride], in experiment [1], the “Average score, 100 mg/kg dose” value is listed as 0.9 and the “Inhibition rate (%)” value was 82.0%.

As to `Cc1ccc(C=Cc2nc3c(s2)NCCCC3)cc1` [Example 6, 2-(4-Methylstyryl)-5,6,7,8-tetrahydro-4H-thiazolo[5,4-b]-azepine], in experiment [3], the inhibition at 1 µM worked out at 100%, the inhibition at 0.1 µM worked out at 94.3% and the inhibition at 0.01 µM was determined as 64.4%. Besides, the half-maximal inhibitory concentration (IC50) in experiment [4] was found to be 7e-07 M.

Take `CCOc1ccc(C=Cc2nc3c(s2)NCCCC3)cc1` [Example 7, 2-(4-Ethoxystyryl)-5,6,7,8-tetrahydro-4H-thiazolo[5,4-b]azepine]: in experiment [4], the IC50 is 8e-07 M.

As to `CC(C)c1ccc(C=Cc2nc3c(s2)NCCCC3)cc1` [Example 8, 2-(4-Isopropylstyryl)-5,6,7,8-tetrahydro-4H-thiazolo[5,4-b]azepine], in experiment [3], the inhibition at 1 µM is 94.6%, the inhibition at 0.1 µM is 92.4% and the inhibition at 0.01 µM turned out to be 54.8%. In addition, the IC50 in experiment [4] was 7e-07 M.

For the molecule `COc1ccc(C=CC=Cc2nc3c(s2)NCCCC3)cc1` [Example 9, 2-[4-(4-Methoxyphenyl)butadienyl]-5,6,7,8-tetrahydro-4H-thiazolo [5,4-b]azepine], at 5-lipoxygenase, the inhibition at 1 µM was 100%, the inhibition at 0.1 µM worked out at 79% and the inhibition at 0.01 µM stood at 12%. The 50% inhibitory concentration (IC50) in experiment [4] was determined as 7e-07 M.

As for `COc1ccccc1C=Cc1nc2c(s1)NCCCC2` [Example 12, 2-(2-Methoxystyryl)-5,6,7,8-tetrahydro-4H-thiazolo [5,4-b)azepine oxalate], the IC50 in experiment [4] was 6e-07 M.

As to `C(=Cc1nc2c(s1)NCCCC2)c1ccc2c(c1)OCO2` [Example 13, 2-(3,4-Methylenedioxystyryl)-5,6,7,8-tetrahydro-4H-thiazolo[5,4-b]azepine hydrochloride], in experiment [3], the inhibition at 1 µM turned out to be 100%, the inhibition at 0.1 µM is 92.5% and the inhibition at 0.01 µM was found to be 61%.

`COc1ccc(C=Cc2nc3c(s2)NCCCC3)cc1OC.Cl` [Example 16, 2-(3,4-Dimethoxystyryl)-5,6,7,8-tetrahydro-4H-thiazolo[5,4-b]azepine hydrochloride]: in experiment [1], the “Average score, 100 mg/kg dose” value was 0.3 and the “Inhibition rate (%)” value was 94.0%.

Regarding `Clc1ccc(C=Cc2nc3c(s2)NCCCC3)cc1Cl` [Example 20, 2-(3,4-Dichlorostyryl)-5,6,7,8-tetrahydro-4H-thiazolo[5,4-b]azepine], on 5-lipoxygenase, the inhibition at 1 µM is 100%, the inhibition at 0.1 µM was determined as 44% and the inhibition at 0.01 µM was 2%. In addition, in experiment [2], the inhibition at 100 µM was determined as 96%, the inhibition at 10 µM turned out to be 43% and the inhibition at 1 µM was found to be 18%.

On to `O=[N+]([O-])c1ccc(C=Cc2nc3c(s2)NCCCC3)cc1` [Example 22, 2-(4-Nitrostyryl)-5,6,7,8-tetrahydro-4H-thiazolo-[5,4-b]azepine], for which, on 5-lipoxygenase, the inhibition at 1 µM was found to be 100%, the inhibition at 0.1 µM was determined as 49% and the inhibition at 0.01 µM worked out at 4%.

Take `Fc1ccccc1-c1nc2c(s1)NCCCC2` [Example 23, 2-(2-Fluorophenyl)-5,6,7,8-tetrahydro-4H-thiazolo [5,4-b]azepine]: in experiment [4], the IC50 was found to be 1.2e-06 M.

Consider `O=[N+]([O-])c1ccc(-c2nc3c(s2)NCCCC3)cc1` [Example 24, 2-(4-Nitrophenyl)-5,6,7,8-tetrahydro-4H-thiazolo[5,4-b]azepine], for which, at 5-lipoxygenase, the inhibition at 1 µM worked out at 93%, the inhibition at 0.1 µM turned out to be 53% and the inhibition at 0.01 µM stood at 26%.

Regarding `c1ccc(-c2nc3c(s2)NCCCC3)cc1` [Example 26, 2-Phenyl-5,6,7,8-tetrahydro-4H-thiazolo[5,4-b]azepine], in experiment [2], the inhibition at 100 µM worked out at 100%, the inhibition at 10 µM was 63% and the inhibition at 1 µM stood at 22%. In addition, the IC50 in experiment [4] came to 1.2e-06 M.

Turning to `c1ccc2cc(-c3nc4c(s3)NCCCC4)ccc2c1` [Example 30, 2-(2-Naphthyl)-5,6,7,8-tetrahydro-4H-thiazolo [5,4-b]azepine], in experiment [3], the inhibition at 1 µM was 100%, the inhibition at 0.1 µM turned out to be 98.8% and the inhibition at 0.01 µM is 76%.

For the molecule `c1csc(-c2nc3c(s2)NCCCC3)c1` [Example 31, 2-(2-Thienyl)-5,6,7,8-tetrahydro-4H-thiazolo[5,4-b]azepine], in experiment [2], the inhibition at 100 µM was found to be 100%, the inhibition at 10 µM was 80% and the inhibition at 1 µM worked out at 19%.

In the case of `CS(=O)(=O)N1CCCCc2nc(-c3ccncc3)sc21` [Example 41, 4-Methanesulfonyl-2-(4-pyridyl)-5,6,7,8-tetrahydro-4H-thiazolo[5,4-b]azepin], in experiment [2], the inhibition at 100 µM was 87%, the inhibition at 10 µM amounted to 63% and the inhibition at 1 µM came out at 23%.
